# Laboratory results taken from the supplement of paper PMC4862054.
# System: MCF-10A
# Experiment: normalised response (% of control), CellTox Green; higher = less cell death (100 = DMSO, 0 = benzethonium chloride kill control)
# Details: incubation time: 72 h
# Outline: (§1)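 Two readouts were taken after 72 h: CellTox Green fluorescence (485/520 nm) first, then CellTiter-Glo luminescence after 10 min at room temperature. Breast cancer cell lines had been seeded as 20 µl suspension into 384-well plates holding compound at 5 concentrations in 10-fold steps across a compound-specific 10,000-fold range. Each value is a normalised signal at a single concentration, with plates scaled to 0.1 % DMSO (100) and a positive kill control (0).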
row,Compound,normalised response
1,Cc1cc(Nc2cc(CN3CCOCC3)c3nc(C)c(Cc4ccc(Cl)cc4F)n3n2)n[nH]1 [Gandotinib] (10000 nM),58.1%
2,CNC(=O)c1ccc(N2C(=S)N(c3ccc(C#N)c(C(F)(F)F)c3)C(=O)C23CCC3)cc1F [RD162] (10000 nM),111%
3,S=P(N1CC1)(N1CC1)N1CC1 [Thio-TEPA] (50000 nM),97.2%

# System: BT-474
# Experiment: as above
# Details: incubation time: 72 h
# Outline: as §1
row,Compound,normalised response
1,CCn1c(-c2nonc2N)nc2cnc(Oc3cccc(NC(=O)c4ccc(OCCN5CCOCC5)cc4)c3)cc21 (10000 nM),98%
2,COc1cc(O)c2c(c1)/C=C/C[C@H](O)[C@H](O)C(=O)/C=C\C[C@H](C)OC2=O [(5Z)-7-Oxozeaenol] (10000 nM),54.5%
3,CNC(=O)c1cccc(-c2ccc3c(N4CCOC[C@@H]4C)nc(N4CCOC[C@@H]4C)nc3n2)c1 [AZD2014] (10000 nM),96.4%
4,Nc1cc(C(F)(F)F)c(-c2cc(N3CCOCC3)nc(N3CCOCC3)n2)cn1 [Buparlisib] (10000 nM),24%
5,CNC(=O)c1ccc(N2C(=S)N(c3ccc(C#N)c(C(F)(F)F)c3)C(=O)C2(C)C)cc1F [Enzalutamide] (10000 nM),101%
6,CCOC(=O)CCNc1cc(N2CCc3ccccc3CC2)nc(-c2ccccn2)n1 [GSK-J4] (100000 nM),-13.6%
7,Cc1cc(Nc2cc(CN3CCOCC3)c3nc(C)c(Cc4ccc(Cl)cc4F)n3n2)n[nH]1 [Gandotinib] (10000 nM),80.9%
8,CNC(=O)c1ccc(N2C(=S)N(c3ccc(C#N)c(C(F)(F)F)c3)C(=O)C23CCC3)cc1F [RD162] (10000 nM),103%
9,S=P(N1CC1)(N1CC1)N1CC1 [Thio-TEPA] (50000 nM),101%

# System: MDA-MB-453
# Experiment: as above
# Details: incubation time: 72 h
# Outline: as §1
row,Compound,normalised response
1,CCn1c(-c2nonc2N)nc2cnc(Oc3cccc(NC(=O)c4ccc(OCCN5CCOCC5)cc4)c3)cc21 (10000 nM),108%
2,COc1cc(O)c2c(c1)/C=C/C[C@H](O)[C@H](O)C(=O)/C=C\C[C@H](C)OC2=O [(5Z)-7-Oxozeaenol] (10000 nM),85.9%
3,CNC(=O)c1cccc(-c2ccc3c(N4CCOC[C@@H]4C)nc(N4CCOC[C@@H]4C)nc3n2)c1 [AZD2014] (10000 nM),95.2%
4,Nc1cc(C(F)(F)F)c(-c2cc(N3CCOCC3)nc(N3CCOCC3)n2)cn1 [Buparlisib] (10000 nM),97.9%
5,CNC(=O)c1ccc(N2C(=S)N(c3ccc(C#N)c(C(F)(F)F)c3)C(=O)C2(C)C)cc1F [Enzalutamide] (10000 nM),95.5%
6,CCOC(=O)CCNc1cc(N2CCc3ccccc3CC2)nc(-c2ccccn2)n1 [GSK-J4] (100000 nM),2.15%
7,Cc1cc(Nc2cc(CN3CCOCC3)c3nc(C)c(Cc4ccc(Cl)cc4F)n3n2)n[nH]1 [Gandotinib] (10000 nM),88.8%
8,CNC(=O)c1ccc(N2C(=S)N(c3ccc(C#N)c(C(F)(F)F)c3)C(=O)C23CCC3)cc1F [RD162] (10000 nM),96.3%
9,S=P(N1CC1)(N1CC1)N1CC1 [Thio-TEPA] (50000 nM),103%

# System: HCC1937
# Experiment: as above
# Details: incubation time: 72 h
# Outline: as §1
row,Compound,normalised response
1,CCn1c(-c2nonc2N)nc2cnc(Oc3cccc(NC(=O)c4ccc(OCCN5CCOCC5)cc4)c3)cc21 (10000 nM),78.5%
2,COc1cc(O)c2c(c1)/C=C/C[C@H](O)[C@H](O)C(=O)/C=C\C[C@H](C)OC2=O [(5Z)-7-Oxozeaenol] (10000 nM),-41.8%
3,CNC(=O)c1cccc(-c2ccc3c(N4CCOC[C@@H]4C)nc(N4CCOC[C@@H]4C)nc3n2)c1 [AZD2014] (10000 nM),108%
4,Nc1cc(C(F)(F)F)c(-c2cc(N3CCOCC3)nc(N3CCOCC3)n2)cn1 [Buparlisib] (10000 nM),50.4%
5,CNC(=O)c1ccc(N2C(=S)N(c3ccc(C#N)c(C(F)(F)F)c3)C(=O)C2(C)C)cc1F [Enzalutamide] (10000 nM),55.2%
6,CCOC(=O)CCNc1cc(N2CCc3ccccc3CC2)nc(-c2ccccn2)n1 [GSK-J4] (100000 nM),-33.8%
7,Cc1cc(Nc2cc(CN3CCOCC3)c3nc(C)c(Cc4ccc(Cl)cc4F)n3n2)n[nH]1 [Gandotinib] (10000 nM),101%
8,CNC(=O)c1ccc(N2C(=S)N(c3ccc(C#N)c(C(F)(F)F)c3)C(=O)C23CCC3)cc1F [RD162] (10000 nM),90.6%
9,S=P(N1CC1)(N1CC1)N1CC1 [Thio-TEPA] (50000 nM),73.4%

# System: CAL-120
# Experiment: as above
# Details: incubation time: 72 h
# Outline: as §1
row,Compound,normalised response
1,CCn1c(-c2nonc2N)nc2cnc(Oc3cccc(NC(=O)c4ccc(OCCN5CCOCC5)cc4)c3)cc21 (10000 nM),103%
2,COc1cc(O)c2c(c1)/C=C/C[C@H](O)[C@H](O)C(=O)/C=C\C[C@H](C)OC2=O [(5Z)-7-Oxozeaenol] (10000 nM),83.6%
3,CNC(=O)c1cccc(-c2ccc3c(N4CCOC[C@@H]4C)nc(N4CCOC[C@@H]4C)nc3n2)c1 [AZD2014] (10000 nM),106%
4,Nc1cc(C(F)(F)F)c(-c2cc(N3CCOCC3)nc(N3CCOCC3)n2)cn1 [Buparlisib] (10000 nM),92.1%
5,CNC(=O)c1ccc(N2C(=S)N(c3ccc(C#N)c(C(F)(F)F)c3)C(=O)C2(C)C)cc1F [Enzalutamide] (10000 nM),104%
6,CCOC(=O)CCNc1cc(N2CCc3ccccc3CC2)nc(-c2ccccn2)n1 [GSK-J4] (100000 nM),-21.8%
7,Cc1cc(Nc2cc(CN3CCOCC3)c3nc(C)c(Cc4ccc(Cl)cc4F)n3n2)n[nH]1 [Gandotinib] (10000 nM),59.9%
8,CNC(=O)c1ccc(N2C(=S)N(c3ccc(C#N)c(C(F)(F)F)c3)C(=O)C23CCC3)cc1F [RD162] (10000 nM),101%
9,S=P(N1CC1)(N1CC1)N1CC1 [Thio-TEPA] (50000 nM),99%

# System: MDA-MB-468
# Experiment: as above
# Details: incubation time: 72 h
# Outline: as §1
row,Compound,normalised response
1,CCn1c(-c2nonc2N)nc2cnc(Oc3cccc(NC(=O)c4ccc(OCCN5CCOCC5)cc4)c3)cc21 (10000 nM),74.3%
2,COc1cc(O)c2c(c1)/C=C/C[C@H](O)[C@H](O)C(=O)/C=C\C[C@H](C)OC2=O [(5Z)-7-Oxozeaenol] (10000 nM),51.8%
3,CNC(=O)c1cccc(-c2ccc3c(N4CCOC[C@@H]4C)nc(N4CCOC[C@@H]4C)nc3n2)c1 [AZD2014] (10000 nM),136%
4,Nc1cc(C(F)(F)F)c(-c2cc(N3CCOCC3)nc(N3CCOCC3)n2)cn1 [Buparlisib] (10000 nM),111%
5,CNC(=O)c1ccc(N2C(=S)N(c3ccc(C#N)c(C(F)(F)F)c3)C(=O)C2(C)C)cc1F [Enzalutamide] (10000 nM),87.5%
6,CCOC(=O)CCNc1cc(N2CCc3ccccc3CC2)nc(-c2ccccn2)n1 [GSK-J4] (100000 nM),-155%
7,Cc1cc(Nc2cc(CN3CCOCC3)c3nc(C)c(Cc4ccc(Cl)cc4F)n3n2)n[nH]1 [Gandotinib] (10000 nM),11.5%
8,CNC(=O)c1ccc(N2C(=S)N(c3ccc(C#N)c(C(F)(F)F)c3)C(=O)C23CCC3)cc1F [RD162] (10000 nM),89.8%
9,S=P(N1CC1)(N1CC1)N1CC1 [Thio-TEPA] (50000 nM),119%

# System: MDA-MB-231
# Experiment: as above
# Details: incubation time: 72 h
# Outline: as §1
row,Compound,normalised response
1,CCn1c(-c2nonc2N)nc2cnc(Oc3cccc(NC(=O)c4ccc(OCCN5CCOCC5)cc4)c3)cc21 (10000 nM),52.4%
2,COc1cc(O)c2c(c1)/C=C/C[C@H](O)[C@H](O)C(=O)/C=C\C[C@H](C)OC2=O [(5Z)-7-Oxozeaenol] (10000 nM),28.4%
3,CNC(=O)c1cccc(-c2ccc3c(N4CCOC[C@@H]4C)nc(N4CCOC[C@@H]4C)nc3n2)c1 [AZD2014] (10000 nM),107%
4,Nc1cc(C(F)(F)F)c(-c2cc(N3CCOCC3)nc(N3CCOCC3)n2)cn1 [Buparlisib] (10000 nM),29.4%
5,CNC(=O)c1ccc(N2C(=S)N(c3ccc(C#N)c(C(F)(F)F)c3)C(=O)C2(C)C)cc1F [Enzalutamide] (10000 nM),107%
6,CCOC(=O)CCNc1cc(N2CCc3ccccc3CC2)nc(-c2ccccn2)n1 [GSK-J4] (100000 nM),-38.5%
7,Cc1cc(Nc2cc(CN3CCOCC3)c3nc(C)c(Cc4ccc(Cl)cc4F)n3n2)n[nH]1 [Gandotinib] (10000 nM),67.7%
8,CNC(=O)c1ccc(N2C(=S)N(c3ccc(C#N)c(C(F)(F)F)c3)C(=O)C23CCC3)cc1F [RD162] (10000 nM),99.8%
9,S=P(N1CC1)(N1CC1)N1CC1 [Thio-TEPA] (50000 nM),113%

# System: CAL-85-1
# Experiment: as above
# Details: incubation time: 72 h
# Outline: as §1
row,Compound,normalised response
1,CCn1c(-c2nonc2N)nc2cnc(Oc3cccc(NC(=O)c4ccc(OCCN5CCOCC5)cc4)c3)cc21 (10000 nM),109%
2,COc1cc(O)c2c(c1)/C=C/C[C@H](O)[C@H](O)C(=O)/C=C\C[C@H](C)OC2=O [(5Z)-7-Oxozeaenol] (10000 nM),27.7%
3,CNC(=O)c1cccc(-c2ccc3c(N4CCOC[C@@H]4C)nc(N4CCOC[C@@H]4C)nc3n2)c1 [AZD2014] (10000 nM),77.8%
4,Nc1cc(C(F)(F)F)c(-c2cc(N3CCOCC3)nc(N3CCOCC3)n2)cn1 [Buparlisib] (10000 nM),104%
5,CNC(=O)c1ccc(N2C(=S)N(c3ccc(C#N)c(C(F)(F)F)c3)C(=O)C2(C)C)cc1F [Enzalutamide] (10000 nM),85%
6,CCOC(=O)CCNc1cc(N2CCc3ccccc3CC2)nc(-c2ccccn2)n1 [GSK-J4] (100000 nM),-35.9%
7,Cc1cc(Nc2cc(CN3CCOCC3)c3nc(C)c(Cc4ccc(Cl)cc4F)n3n2)n[nH]1 [Gandotinib] (10000 nM),51.3%
8,CNC(=O)c1ccc(N2C(=S)N(c3ccc(C#N)c(C(F)(F)F)c3)C(=O)C23CCC3)cc1F [RD162] (10000 nM),91.2%
9,S=P(N1CC1)(N1CC1)N1CC1 [Thio-TEPA] (50000 nM),93.8%

# System: Hs578T
# Experiment: as above
# Details: incubation time: 72 h
# Outline: as §1
row,Compound,normalised response
1,CCn1c(-c2nonc2N)nc2cnc(Oc3cccc(NC(=O)c4ccc(OCCN5CCOCC5)cc4)c3)cc21 (10000 nM),110%
2,COc1cc(O)c2c(c1)/C=C/C[C@H](O)[C@H](O)C(=O)/C=C\C[C@H](C)OC2=O [(5Z)-7-Oxozeaenol] (10000 nM),49.4%
3,CNC(=O)c1cccc(-c2ccc3c(N4CCOC[C@@H]4C)nc(N4CCOC[C@@H]4C)nc3n2)c1 [AZD2014] (10000 nM),129%
4,Nc1cc(C(F)(F)F)c(-c2cc(N3CCOCC3)nc(N3CCOCC3)n2)cn1 [Buparlisib] (10000 nM),18%
5,CNC(=O)c1ccc(N2C(=S)N(c3ccc(C#N)c(C(F)(F)F)c3)C(=O)C2(C)C)cc1F [Enzalutamide] (10000 nM),112%
6,CCOC(=O)CCNc1cc(N2CCc3ccccc3CC2)nc(-c2ccccn2)n1 [GSK-J4] (100000 nM),-146%
7,Cc1cc(Nc2cc(CN3CCOCC3)c3nc(C)c(Cc4ccc(Cl)cc4F)n3n2)n[nH]1 [Gandotinib] (10000 nM),-107%
8,CNC(=O)c1ccc(N2C(=S)N(c3ccc(C#N)c(C(F)(F)F)c3)C(=O)C23CCC3)cc1F [RD162] (10000 nM),110%

# System: DU-4475
# Experiment: as above
# Details: incubation time: 72 h
# Outline: as §1
row,Compound,normalised response
1,CCn1c(-c2nonc2N)nc2cnc(Oc3cccc(NC(=O)c4ccc(OCCN5CCOCC5)cc4)c3)cc21 (10000 nM),97.6%
2,COc1cc(O)c2c(c1)/C=C/C[C@H](O)[C@H](O)C(=O)/C=C\C[C@H](C)OC2=O [(5Z)-7-Oxozeaenol] (10000 nM),57.9%
3,CNC(=O)c1cccc(-c2ccc3c(N4CCOC[C@@H]4C)nc(N4CCOC[C@@H]4C)nc3n2)c1 [AZD2014] (10000 nM),86.3%
4,Nc1cc(C(F)(F)F)c(-c2cc(N3CCOCC3)nc(N3CCOCC3)n2)cn1 [Buparlisib] (10000 nM),95.8%
5,CNC(=O)c1ccc(N2C(=S)N(c3ccc(C#N)c(C(F)(F)F)c3)C(=O)C2(C)C)cc1F [Enzalutamide] (10000 nM),98.2%
6,CCOC(=O)CCNc1cc(N2CCc3ccccc3CC2)nc(-c2ccccn2)n1 [GSK-J4] (100000 nM),79.7%
7,Cc1cc(Nc2cc(CN3CCOCC3)c3nc(C)c(Cc4ccc(Cl)cc4F)n3n2)n[nH]1 [Gandotinib] (10000 nM),103%
8,CNC(=O)c1ccc(N2C(=S)N(c3ccc(C#N)c(C(F)(F)F)c3)C(=O)C23CCC3)cc1F [RD162] (10000 nM),98.4%
9,S=P(N1CC1)(N1CC1)N1CC1 [Thio-TEPA] (50000 nM),97.7%
